Measured values published in patent EP0323416A2, “Phenylbenzylidene derivatives of 3-aminopropanesulfonic acid having anticonvulsant activity and pharmaceutical compositions containing same for the therapeutical treatment of epilepsy” (Sigma-Tau Industrie Farmaceutiche Riunite S.p.A., priority 1987, dated 1989).
Marks after values point to notes of the source that are not given here.

Key:
[1] = tested on: Sodium penicillin G-induced epilepsy; test: Sodium penicillin G-induced epilepsy (EEG); format: in vivo, Male albino Wistar rats; details: rats
Excerpt: In this regard, see: Holmes, O. arid Lockton, J.W.: "Locally generated interictal epilectic spikes in the cortex cerebri of the rat". J.Physiol. (Lond.), 308 (1980) 75-76 P. Lokcton, J.W. and Holmes, O: "Site of penicillin-induced epilepsy in the cortex cerebri of the rat'. Brain research, 190 (1980) 301-304. Reichental, E. and Hocherman, S. : "The critical cortical area for development of penicillin-induced epilepsy". Electroenceph. Clin. Neurophysiol., 42 (1977) 248-251).
Male albino Wistar rats weighing 260-280 g were used in this test. Epilepsy was induced in these rats through the application of 5 mg of sodium penicillin G, power (Carlo Erba) on the left cortex cerebri. EEG recording (electroencephalograph OTE-Biomedica PF 14e) was carried out with cortical electrodes. Following a 15 minute recording period (basal), the animals were orally administered 250 mg/10 ml/kg of ST 505 suspended in 10% gum arabic. The controls were administered 10 ml/kg of 10% gum arabic.
The following parameters were taken into account: • a) numper of peaks of the EEG tracing in subsequent 15 minu te intervals, in an overall 5-hour recording period; and • b) number of fits with attendant average duration for each interval.
With regard to parameter a), the area under the curve was calculated wherein the number of peaks at different times and its accumulation function were plotted versus the observation time, thus obtaining five descriptive parameters: one which gives the measure (area) of the totale amount of epilepsy and four (shape indexes) describing the trends of the peaks during the time interval (five hours) under examination. These shape indexes were the percentile values at 50%, 60%, 70% and 800/0 of the accumulation function of the area versus time and represented, therefore, for each rat, a measure of the distribution of the epileptic fits in time.
The fits were studied with the same model as that utilized for the peaks.

[2] = tested on: strychnine-induced convulsions; test: Strychnine-induced convulsions test in mice; format: in vivo, male albino Swiss (Charles River) mice; details: oral; for Strychnine % Death rate / Strychnine Strong % Conv.: 60 minutes before convulsant, mice (Table 3)
Description: (§1) The doses of cardiazol, strychinine, bicuculline and picrotoxin (100 mg/10 ml/kg i.p., 0.73 mg/10 ml/kg s.c., 2.38 mg/10 ml/kg s.c. and 4.42 mg/10 ml/kg s.c. respectively) were chosen in such a way as to provoke death of 50% of the control animals.
(§2) The tests were carried out in male albino Swiss (Charles River) mice weighing 22-24 g which had been kept fasting for 18 hours.
(§3) 100/0 gum arabic suspensions of the compounds under examination were orally administered 60 minutes before the convulsant agent administration.
(§4) As reference substance, 3-APS (200-400-800 mg/10 ml/kg i.p.) was used.

FeCl3-induced epilepsy = FeCl3-induced epilepsy model (EEG); format: in vivo, Male albino Wistar rats; details: 500 mg/kg oral 45 minutes following FeCl3 injection; Mann-Whitney's U test, P<0.05
Description: Male albino Wistar rats weighing 250-300g were used. The animals, anaesthetized with Nembutal Na (30 mg/kg i.p.), were stereotactically injected in their left ventral hippocampus one microliter of 0.55 M FeCl3 solution (AP=-3.2; L=5.0.; H=5.5 Pelhgrino and Cushman, 1971). Ten minutes following injection, recording electrodes were implanted: in both ventral hippocampi, two millimiters below the FeCl3 injection site (bipolars), bilaterally on the frontoparietal cortex (monopolars). recording of cerebral bioelectric activity, carried out with an EEG OTE-Biomedica PF 14e recorder, began about one hour following FeCl3 injection and lasted more than three hours on end.The epilepsy degree was assessed by calculating for each animal the number and duration in seconds of the seizures at 15-minute intervals during the whole recording span both in the hyppocampus where the injection had been performed and in the contralateral cortex. Moreover, an "index of epileptization" was calculated as the mean product of seizure number times the duration of the seizures in each time interval. […]
The results thus obtained show the antiepileptic activity of the compound assessed by examining the whole phenomenon as it evolves in time via the measure (carried out with the trapezoidal rule) of the area under the curve wherein the average number of seizures and their duration is plotted versus time.

[3] = tested on: picrotoxin-induced convulsions; test: Picrotoxin-induced convulsions test in mice; format: in vivo, male albino Swiss (Charles River) mice; details: oral; for Picrotoxin % Death rate / Picrotoxin Strong % Conv.: 60 minutes before convulsant, mice (Table 3)
Description: as §1, §2, §3, §4

male albino Swiss mice = test: Tolerability test, oral; format: in vivo; details: suspension in 10% gum arabic, dose of 3 g/kg, mice fasting for 18 hours
Description: The tolerability test was carried out on male albino Swiss mice weighing 22-24 g. The animals, which had been kept fasting for 18 hours, were orally administered a suspension in 10% gum arabic of the compounds ST 505 and ST 512.

[4] = tested on: bicuculline-induced convulsions; test: Bicuculline-induced convulsions test in mice; format: in vivo, male albino Swiss (Charles River) mice; details: oral; for Bicuculline % Death rate / Bicuculline Strong % Conv.: 60 minutes before convulsant, mice (Table 3)
Description: as §1, §2, §3, §4

auricular electroshock = test: Auricular electroshock (maximal electroshock death); format: in vivo, Male albino Swiss mice; details: oral in gum arabic 60 minutes before the electroshock, 10 mice
Description: Male albino Swiss mice weighing 22-24 g were used in this test. The electroshock conditions were the shock duration: 3 seconds; frequence: 100; pulse amplitude: 0.6 milliseconds, current intensity: 40 milliamperes. The compounds ST 505 and ST 512 suspended in gum arabic were orally administered 60 minutes before the electroshock.
The tests results which illustrate the number of animal preserved from death provoked by maximal electroshock are shown in the following Table 4.

[5] = tested on: cardiazol-induced convulsions; test: Cardiazol-induced convulsions test in mice; format: in vivo, male albino Swiss (Charles River) mice; details: oral; for Cardiazol % Death rate / Cardiazol Strong % Conv.: 60 minutes before convulsant, mice (Table 3)
Description: as §1, §2, §3, §4

[6] = tested on: cardiazol-induced convulsions; test: Cardiazol-induced convulsions test in rats; format: in vivo, male albino Wistar rats; details: oral, 60 minutes before cardiazole 70 mg/10ml/kg i.p.
Description: The compound was also orally administered to male albino Wistar rats weighing 170-200 g (see table 3), at the dose equimolar to 100 mg 3-APS 60 minutes before cardiazole administration (70 mg/10ml/kg i.p.).

[7] = 200 mg/kg eq. 3-APS, versus control
[8] = 100 mg/kg eq. 3-APS, versus control

Compound: NS(=O)(=O)CCCN=C(c1ccc(Cl)cc1)c1cc(F)ccc1O [ST 505, 3-[[a-(p-chlorophenyl)-5-fluoro-2-hydroxybenzylidene]amino]propanesulfonamide]
- area of the peaks ([1]; 250 mg/10 ml/kg oral, versus controls, Mann Whitney's U test): significantly decreased
- Peak area ([1]; MEAN (S.E.), 250 mg/kg oral, 5-hour EEG recording): 52.9 (5.87)**
- Ist shape index ([1]; MEAN (S.E.), 250 mg/kg oral, percentile 50% of accumulation function): 8.5 (1.0)**
- 2nd shape index ([1]; MEAN (S.E.), 250 mg/kg oral, percentile 60% of accumulation function): 9.8 (1.2)
- 3rd shape index ([1]; MEAN (S.E.), 250 mg/kg oral, percentile 70% of accumulation function): 11.8 (1.4)
- 4th shape index ([1]; MEAN (S.E.), 250 mg/kg oral, percentile 80% of accumulation function): 13.8 (1.4)
- reduction of strychnine-induced death rate ([2]; 100 mg/kg eq. 3-APS): 20%
- Strychnine % Death rate ([2]; 100 mg/kg eq. 3 APS): 30%
- Strychnine Strong % Conv. ([2]; 100 mg/kg eq. 3 APS): 60%
- strychnine-induced convulsions and death ([2]; 200 mg/kg eq. 3-APS): preserved all the animals
- Strychnine % Death rate ([2]; 200 mg/kg eq. 3 APS): 0%
- Strychnine Strong % Conv. ([2]; 200 mg/kg eq. 3 APS): 0%
- area under the curve of average number of seizures and their duration versus time, compared with controls (FeCl3-induced epilepsy): statistically significant difference
- picrotoxin response ([3]; 100 mg/kg eq. 3-APS): did not change
- Picrotoxin % Death rate ([3]; 100 mg/kg eq. 3 APS): 90%
- Picrotoxin Strong % Conv. ([3]; 100 mg/kg eq. 3 APS): 100%
- latency time of picrotoxin-induced first convulsion [3, 7]: increased
- Picrotoxin % Death rate ([3]; 200 mg/kg eq. 3 APS): 90%
- Picrotoxin Strong % Conv. ([3]; 200 mg/kg eq. 3 APS): 100%
- tolerability (male albino Swiss mice): well tolerated
- reduction of bicuculline-induced death rate ([4]; 100 mg/kg eq. 3-APS): 20%
- latency time of the bicuculline-induced death [4, 8]: significantly increased
- latency time of the bicuculline-induced first convulsion [4, 8]: significantly increased
- Bicuculline % Death rate ([4]; 100 mg/kg eq. 3 APS): 80%
- Bicuculline Strong % Conv. ([4]; 100 mg/kg eq. 3 APS): 100%
- latency time of bicuculline-induced death [4, 7]: increased
- latency time of bicuculline-induced first convulsion [4, 7]: increased
- Bicuculline % Death rate ([4]; 200 mg/kg eq. 3 APS): 80%
- Bicuculline Strong % Conv. ([4]; 200 mg/kg eq. 3 APS): 100%
- death rate (auricular electroshock; dose 200 (unit not given)): 4/10
- death rate (auricular electroshock; dose 400 (unit not given)): 5/10
- cardiazole response ([5]; 100 mg/kg eq. 3-APS): did not change
- Cardiazol % Death rate ([5]; 100 mg/kg eq. 3 APS): 90%
- Cardiazol Strong % Conv. ([5]; 100 mg/kg eq. 3 APS): 90%
- latency time of cardiazole-induced first convulsion [5, 7]: increased
- Cardiazol % Death rate ([5]; 200 mg/kg eq. 3 APS): 40%
- Cardiazol Strong % Conv. ([5]; 200 mg/kg eq. 3 APS): 80%
- Cardiazol % Death rate ([6]; RAT, 100 mg/kg eq. 3 APS): 60%
- Cardiazol Strong % Conv. ([6]; RAT, 100 mg/kg eq. 3 APS): 60%
- death rate reduction ([6]; Wistar rats, dose equimolar to 100 mg 3-APS): 30%
- first convulsion latency time ([6]; Wistar rats, dose equimolar to 100 mg 3-APS, versus control): significant increase
